In brackets after ≈: the same amount, converted by molar mass.
Tests used:
[1] = tested on: C. albicans ATCC 14053; assay: MIC microdilution susceptibility testing, C. albicans in RPMI; format: cell-based, Candida albicans; conditions: RPMI medium pH 6.9, 35-37° C., 24-48 h, average of three experiments; for MIC: Candida albicans, ATCC14053, read-out: MIC C. albicans ATCC 14053, RPMI
Experimental: (§1) Microorganisnis. […] Stock cultures were kept on Sabouraud dextrose agar (SDA; Becton-Dickinson and Co., Sparks, Md.). Subcultures were prepared on SDA at 35-37° C. Suspension cultures were prepared by inoculation of single colonies in 7 ml of normal saline solution.
(§2) Test compounds were dissolved in DMSO (0.56 mg/ml) and stored at 0° C. Working dilutions were made in RPMI or SDB medium. […] The final maximum concentration of DMSO in the assays was 5% (v/v).
(§3) Microdilutions for control experiments with C. albicans, A. niger, and C. neoformans were the modified method of National Committee for Clinical Laboratory Standards (NCCLS) method as described by Galgiani and by the more recent NCCLS M27-A microdilution methods as described previously. Galgiani, J. N. Antimicrob. Agents Chemother. […] Reference method for broth dilution antifungal susceptibility testing for yeasts. Approval standard. […] 9; C. arballeira, N. M., et al. Arch. Pharm.-Pharm. […] Dilutions were prepared in 0.1 ml of RPMI or SDB; the inocula were either 10^4 C. albicans or C. neoformans cells or A. niger spores. The tubes were incubated for 24-48 h at 36±1° C., and turbidity was read visually.

[2] = tested on: C. albicans ATCC 14053; assay: MIC microdilution susceptibility testing, C. albicans in SDB; format: cell-based, Candida albicans; conditions: for MIC: Candida albicans, ATCC14053, pH 5.6, SDB medium pH 5.6, 35-37° C.; for MIC / MIC C. albicans ATCC 14053, SDB: 24-48 h, average of three experiments; for fold more active than FLC against C. albicans in SDB: MIC ratio to FLC; for MIC C. albicans ATCC 14053, SDB: SDB medium pH 5.6, 35-37° C.; for fold less antifungal activity against C. albicans in SDB than in RPMI: SDB versus RPMI
Experimental: as §1, §2, §3

[3] = tested on: C. neoformans ATCC 66031; assay: MIC microdilution susceptibility testing, C. neoformans in SDB; format: cell-based, Cryptococcus neoformans; conditions: SDB medium, 35-37° C., 24-48 h, average of three experiments; for MIC: Cryptococcus neoformans, ATCC66031
Experimental: as §1, §2, §3

[4] = tested on: C. albicans ATCC 14053; assay: Interaction studies (FIC index) against C. albicans in SDB; format: cell-based, Candida albicans; conditions: for FIC index: mixed with FLC, C. albicans ATCC 14053, SDB
Excerpt: . Fractional Inhibitory Concentration (FIC) index [FICindex=FICA+FICB] calculation was used to determine synergism between different components of the synthesized compounds while administered separately, where FICA or FICB equals to MIC of compounds A or B in combination divided by MIC of drug A or B alone. If the FIC index is ≦0.5, the combination is synergistic. […]

[5] = tested on: A. niger ATCC 16404; assay: MIC microdilution susceptibility testing, A. niger in SDB; format: cell-based, Aspergillus niger; conditions: for fold more potent than FLC against A. niger: MIC ratio to FLC, SDB
Experimental: as §1, §2, §3

[6] = SDB medium, 35-37° C., 24-48 h, average of three experiments

MIC [1] | MIC [2] | MIC [3] | MIC ([5]; Aspergillus niger, ATCC16404, SDB medium, 35-37° C., 24-48 h, average of three experiments) | Structure (SMILES) | FIC index [4] | fold less antifungal inhibition than 1g used alone ([4]; mixture with FLC, C. albicans, SDB) | fold more active than FLC against C. albicans in SDB [2] | MIC C. albicans ATCC 14053, SDB [2] | fold less antifungal activity against C. albicans in SDB than in RPMI [2] | MIC C. neoformans ATCC 66031, SDB [3] | fold more potent than FLC against A. niger [5] | MIC A. niger ATCC 16404, SDB [5, 6] | MIC C. albicans ATCC 14053, RPMI [1]
865 µg/mL (≈ 3880 µM) | 865 µg/mL (≈ 3880 µM) | 433 µg/mL (≈ 1940 µM) |  | CCCCCCC(Br)C(=O)O (stereo not drawn) [2-Bromooctanoic acid, reference compound] | 0.30 | approximately 2 fold |  |  |  |  |  |  | 
371 µg/mL (≈ 1400 µM) | 185 µg/mL (≈ 698 µM) | 23 µg/mL (≈ 86.7 µM) | 93 µg/mL (≈ 351 µM) | O=C(O)CCCCCCCCCCBr [11-Bromoundecanoic acid, reference compound] | 0.52 |  |  |  |  |  |  |  | 
 |  |  |  | CCCCCCC(Br)C(=O)OC(Cn1cncn1)(Cn1cncn1)c1ccc(F)cc1F (stereo not drawn) [Compound 1g, O-2-Bromooctanoylfluconazole] | 1.05 |  | at least 40 fold | 111 µg/mL (≈ 217 µM) | 8 fold | 14 µg/mL (≈ 27.4 µM) | at least 5.2 fold | 111 µg/mL (≈ 217 µM) | 
 |  |  |  | O=C(CCCCCCCCCCBr)OC(Cn1cncn1)(Cn1cncn1)c1ccc(F)cc1F [Compound 1j, O-11-Bromoundecanoylfluconazole] | 1.04 |  | ≥ 22 fold | 198 µg/mL (≈ 358 µM) | 17 fold |  | ≥ 1.5 fold | 395 µg/mL (≈ 714 µM) | 12 µg/mL (≈ 21.7 µM)

Reference: US7351731B2, “Azole derivatives and methods for making the same” (Board of Governors for Higher Education, State of Rhode …, priority 2005, dated 2008)
